For this assay, the target named is Human Factor D (Homo sapiens (Human), UniProt P00746). The assay is described as follows: Human Factor D Assay. It counts as biochemical. The method in brief:
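Thioester substrate Z-L-Lys-SBz (100 μM) with Ellman's reagent DTNB (100 μM) reports activity of 80 nM human serum-derived enzyme, kinetically at 405 nm over 30 min. Compound preincubated 5 min, room temperature, pH 7.5 Tris/1 M NaCl; IC50 by nonlinear fit of rates.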

The mark [1] stands for this setting: Factor D inhibition, assay of Example 10, read-out: IC5 (Stars).

Like-named read-outs stand apart in the source and are kept apart here.

From patent publication US11084800B2 (Achillion Pharmaceuticals, Inc., priority 2017, dated 2021) come the findings set out here.

Sequence of Human Factor D (P00746 26-253): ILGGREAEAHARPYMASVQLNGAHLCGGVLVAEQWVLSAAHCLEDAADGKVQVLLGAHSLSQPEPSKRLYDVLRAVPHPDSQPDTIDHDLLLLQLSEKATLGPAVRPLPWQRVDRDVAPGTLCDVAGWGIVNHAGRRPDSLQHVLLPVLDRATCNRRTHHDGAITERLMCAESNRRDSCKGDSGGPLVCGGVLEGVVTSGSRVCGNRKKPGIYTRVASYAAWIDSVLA

Regarding `CC(=O)c1nn(CC(=O)N2C[C@@](F)(CF)C[C@H]2C(=O)Nc2nc(Br)ccc2C)c2c(C)nc(-c3cnc(C)nc3)cc12` [Compound 410, (2S,4R)-1-(2-(3-acetyl-7-methyl-5-(2-methylpyrimidin-5-yl)-1H-pyrazolo[3,4-c]pyridin-1-yl)acetyl)-N-(6-bromo-3-methylpyridin-2-yl)-4-fluoro-4-(fluoromethyl)pyrrolidine-2-carboxamide], the IC50 under setting [1] was under 1000 nM.

For the compound `CC(=O)c1nn(CC(=O)N2C[C@H]3C[C@H]3[C@H]2C(=O)NCc2cccc(Cl)c2F)c2c(C)nc(-c3cnc(C)nc3)cc12` [Compound 411, (1R,2S,5S)-3-(2-(3-acetyl-7-methyl-5-(2-methylpyrimidin-5-yl)-1H-pyrazolo[3,4-c]pyridin-1-yl)acetyl)-N-(3-chloro-2-fluorobenzyl)-3-azabicyclo[3.1.0]hexane-2-carboxamide], the IC50 under setting [1] was under 1000 nM.

With `CC(=O)c1nn(CC(=O)N2C[C@H]3C[C@H]3[C@H]2C(=O)NCc2cccc(Cl)c2F)c2ccc(-c3cnc(C)nc3)cc12` [Compound 412, (1R,2S,5S)-3-(2-(3-acetyl-5-(2-methylpyrimidin-5-yl)-1H-indazol-1-yl)acetyl)-N-(3-chloro-2-fluorobenzyl)-3-azabicyclo[3.1.0]hexane-2-carboxamide], the IC50 under setting [1] is under 1000 nM.

Regarding `CC(=O)c1nn(CC(=O)N2C[C@H]3C[C@H]3[C@H]2C(=O)NCc2cccc(Cl)c2F)c2c(C)cc(-c3cnc(C)nc3)cc12` [Compound 413], under setting [1], the IC50 is under 1000 nM.

In the case of `CC(=O)c1nn(CC(=O)N2[C@H](C(=O)Nc3nc(Br)ccc3C)C[C@@]3(C)C[C@@H]23)c2cnc(-c3cnc(CNC(=O)COCCOCCNC(=O)COCCOCCNC(=O)CC[C@H](NC(=O)CCCCCCCCCCCCCCCCC(=O)O)C(=O)O)nc3)cc12` [Compound 414], the IC50 (Table 8, Factor D 80 nM, substrate Z-L-Lys-SBz, read-out: IC50) is under 1000 nM.

For the compound `CC(=O)c1nn(CC(=O)N2[C@H](C(=O)Nc3nc(Br)ccc3C)C[C@@]3(CN(C(C)C)C(C)C)C[C@@H]23)c2c(C)cc(-c3cnc(C)nc3)cc12` [Compound 415, (1R,3S,5R)-2-(2-(3-acetyl-7-methyl-5-(2-methylpyrimidin-5-yl)-1H-indazol-1-yl)acetyl)-N-(6-bromo-3-methylpyridin-2-yl)-5-((diisopropylamino)methyl)-2-azabicyclo[3.1.0]hexane-3-carboxamide], the IC50 under setting [1] was under 1000 nM.

Take `CC(=O)c1cn(CC(=O)N2[C@H](C(=O)Nc3nc(Br)ccc3C)C[C@@]3(C)C[C@@H]23)c2ccc(-c3cnc(C)nc3)cc12` [Compound 416, (1R,3S,5R)-2-(2-(3-acetyl-5-(2-methylpyrimidin-5-yl)-1H-indol-1-yl)acetyl)-N-(6-bromo-3-methylpyridin-2-yl)-5-methyl-2-azabicyclo[3.1.0]hexane-3-carboxamide]: the IC50 under setting [1] is under 1000 nM.

Consider `CC(=O)c1nn(CC(=O)N2C[C@@](F)(CF)C[C@H]2C(=O)Nc2nc(Br)c(F)cc2C)c2c(C)nc(-c3cnc(C)nc3)cc12` [Compound 417, (2S,4R)-1-(2-(3-acetyl-7-methyl-5-(2-methylpyrimidin-5-yl)-1H-pyrazolo[3,4-c]pyridin-1-yl)acetyl)-N-(6-bromo-5-fluoro-3-methylpyridin-2-yl)-4-fluoro-4-(fluoromethyl)pyrrolidine-2-carboxamide], for which the IC50 under setting [1] was under 1000 nM.

As for `CC(=O)c1nn(CC(=O)N2C[C@@](F)(CF)C[C@H]2C(=O)Nc2cncc(Br)n2)c2c(C)nc(-c3cnc(C)nc3)cc12` [Compound 418, (2S,4R)-1-(2-(3-acetyl-7-methyl-5-(2-methylpyrimidin-5-yl)-1H-pyrazolo[3,4-c]pyridin-1-yl)acetyl)-N-(6-bromopyrazin-2-yl)-4-fluoro-4-(fluoromethyl)pyrrolidine-2-carboxamide], under setting [1], the IC50 is under 1000 nM.

On to `CC(=O)c1nn(CC(=O)N2C[C@](F)(Cn3ccnn3)C[C@H]2C(=O)Nc2nc(Br)ccc2C)c2ccc(-c3cnc(C)nc3)cc12` [Compound 419], for which, under setting [1], the IC50 is under 1000 nM.

In the case of `CC(=O)c1nn(CC(=O)N2C[C@](F)(CN(C)C)C[C@H]2C(=O)Nc2nc(Br)ccc2C)c2ccc(-c3cnc(C)nc3)cc12` [Compound 420, (2S,4R)-1-(2-(3-acetyl-5-(2-methylpyrimidin-5-yl)-1H-indazol-1-yl)acetyl)-N-(6-bromo-3-methylpyridin-2-yl)-4-((dimethylamino)methyl)-4-fluoropyrrolidine-2-carboxamide], the IC50 under setting [1] lay within 1000 to 10000 nM.

Take `CC(=O)c1nn(CC(=O)N2C[C@](F)(CF)C[C@H]2C(=O)Nc2nc(Br)ccc2C)c2ccc(-c3cnc(C)nc3)cc12` [Compound 422, (2S,4S)-1-(2-(3-acetyl-5-(2-methylpyrimidin-5-yl)-1H-indazol-1-yl)acetyl)-N-(6-bromo-3-methylpyridin-2-yl)-4-fluoro-4-(fluoromethyl)pyrrolidine-2-carboxamide]: the IC50 under setting [1] is under 1000 nM.

In the case of `CC(=O)c1nn(CC(=O)N2[C@H](C(=O)Nc3nc(Br)c(F)cc3C)C[C@@]3(Cc4nc(C)no4)C[C@@H]23)c2c(C)nc(-c3cnc(C)nc3)cc12` [Compound 423, (1R,3S,5R)-2-(2-(3-acetyl-7-methyl-5-(2-methylpyrimidin-5-yl)-1H-pyrazolo[3,4-c]pyridin-l-yl)acetyl)-N-(6-bromo-5-fluoro-3-methylpyridin-2-yl)-5-((3-methyl-1,2,4-oxadiazol-5-yl)methyl)-2-azabicyclo[3.1.0]hexane-3-carboxamide], the IC50 under setting [1] was under 1000 nM.

`CC(=O)c1nn(CC(=O)N2[C@H](C(=O)Nc3nc(Br)c(F)cc3C)C[C@@]3(Cc4nc(C)no4)C[C@@H]23)c2c(C)cc(-c3cnc(C)nc3)cc12` [Compound 424, (1R,3S,5R)-2-(2-(3-acetyl-7-methyl-5-(2-methylpyrimidin-5-yl)-1H-indazol-1-yl)acetyl)-N-(6-bromo-5-fluoro-3-methylpyridin-2-yl)-5-((3-methyl-1,2,4-oxadiazol-5-yl)methyl)-2-azabicyclo[3.1.0]hexane-3-carboxamide]: the IC50 under setting [1] is under 1000 nM.

For the compound `CC(=O)c1nn(CC(=O)N2[C@H](C(=O)Nc3nc(C(F)(F)F)ccc3C)C[C@@]3(Cc4nc(C)no4)C[C@@H]23)c2c(C)cc(-c3cnc(C)nc3)cc12` [Compound 425, (1R,3S,5R)-2-(2-(3-acetyl-7-methyl-5-(2-methylpyrimidin-5-yl)-1H-indazol-1-yl)acetyl)-5-((3-methyl-1,2,4-oxadiazol-5-yl)methyl)-N-(3-methyl-6-(trifluoromethyl)pyridin-2-yl)-2-azabicyclo[3.1.0]hexane-3-carboxamide], under setting [1], the IC50 is under 1000 nM.

For the compound `CC(=O)c1cn(CC(=O)N2[C@H](C(=O)Nc3nc(Br)ccc3C)C[C@@]3(C)C[C@@H]23)c2c(C)cc(-c3cnc(C)nc3)cc12` [Compound 426, (1R,3S,5R)-2-(2-(3-acetyl-7-methyl-5-(2-methylpyrimidin-5-yl)-1H-indol-1-yl)acetyl)-N-(6-bromo-3-methylpyridin-2-yl)-5-methyl-2-azabicyclo[3.1.0]hexane-3-carboxamide], under setting [1], the IC50 is under 1000 nM.

As to `CC(=O)c1nn(CC(=O)N2[C@H](C(=O)NCc3cccc(Cl)c3F)C[C@@]3(Cc4nc(C)no4)C[C@@H]23)c2c(C)cc(-c3cnc(C)nc3)cc12` [Compound 427, (1R,3S,5R)-2-(2-(3-acetyl-7-methyl-5-(2-methylpyrimidin-5-yl)-1H-indazol-1-yl)acetyl)-N-(3-chloro-2-fluorobenzyl)-5-((3-methyl-1,2,4-oxadiazol-5-yl)methyl)-2-azabicyclo[3.1.0]hexane-3-carboxamide], the IC50 under setting [1] was under 1000 nM.
